Where “and” joins values, the source holds several entries; their conditions need not be identical. Equal entries are not always repeated. Where two headings read alike, the source gives them in different places. Where a SMILES comes first, the peptide text is derived from it.
How the values were obtained:
[1] = test system: VS Enterococcus faecalis NCTC 775; assay: Antibacterial activity assay (broth microdilution MIC); assay type: cell-based; conditions: for MIC, Peptide concentration: Mueller-Hinton broth; for MIC on initial panels: VSE775, medium and unit not given, in µg/mL
[2] = test system: A549; assay: Cytotoxicity assay; assay type: cell-based; conditions: value printed in parentheses
[3] = test system: Calu-3; assay: Cytotoxicity assay; assay type: cell-based; conditions: value printed in parentheses
[4] = test system: human red blood cells; assay: Haemolysis assay; conditions: for Toxicity HC50, Peptide concentration: red cells of human, 1 h
Description: Haemolysis assay. Haemolysis was tested by incubating titrations of AMPs in PBS with freshly collected human red blood cells for 1 hour at 37 C. Control wells were treated with 0.1% Triton-X-100 to ensure complete lysis, or PBS-only to represent no lysis. Samples were spun down to remove non-lysed cells and the OD^550 of the supernatant was measured using a Clariostar plate reader. The percentage of haemolysis was calculated as % haemolysis=(AP−AB)/(AC−AB)×100, where AP is the absorbance value for a known peptide concentration, AC is the absorbance of the 0.1% Triton-X-100 control, AB is the absorbance of the PBS control. Data presented are averages and standard error from three biological replicate experiments.
Methods: The natural AMP (termed AMP1) was modified to produce synthetic variants, AMPs 1a, 2a, 2b, 3a and 3b. Minimum inhibitory concentrations (MICs) were determined using the microbroth dilution assay with Mueller Hinton broth (MHB) or RPMI (with 5% FBS) and stability in serum was tested by conducting MICs in MHB containing 10% FBS. Synergy experiments were performed following a checkerboard protocol. Cytotoxicity was tested against HEK293 and HeLa immortalised human cell-lines using the XTT viability stain and by quantifying haemolysis of human red blood cells. Patch clamp analysis was performed using the Port-a-Patch® automated patch-clamp system on DPhPE/DPhPG (model for a Gram-negative plasma membrane) or DPhPG (Gram-positive) model membranes challenged with peptide. The murine lung infection model was performed using the agar bead model with Staphylococcus aureus strain NCTC 13616 (EMRSA-15).

[5] = test system: EMRSA-15 lung infection
Description: Murine EMRSA-15 lung infection model. In one embodiment this was carried out using the method described previously,^58 an overnight culture of EMRSA-15 was prepared in tryptic soy broth (TSB). EMRSA-15 was cultured in TSB overnight at 37° C., adjusted to a starting OD600 of 0.025, and grown for additional 4 h for agar beads preparation. EMRSA-15 was embedded into agar beads by mixing the overnight culture with molten tryptic soy agar, which was then spun into warmed mineral oil. The preparation was cooled and centrifuged at 2,700 g, the remaining oil was eliminated and the beads were washed in sterile PBS. The colony forming unit (cfu) content of the beads slurry was subsequently quantified on TSA plates and the beads slurry then diluted to either 2×10^7 cfu/ml in sterile PBS to deliver a final dose of either 1×10^6 cfu/mouse. Animal work was performed in accordance with the Animals (Scientific Procedures) Act of 1986 (United Kingdom). On day 0, male C57B16J mice (8-10 weeks, Charles River) were anesthetized under Isoflurane and 50 μl inoculum of EMRSA-15 embedded in agar beads (10^6 cfu/mouse) was instilled directly into the respiratory tract via oropharyngeal dosing (o.a) to reduce severity associated with surgery. Sham control mice were inoculated with sterile PBS agar beads. […] Body weight was measured daily, and animals monitored at regular intervals for signs of pain and distress. 48 hours post pulmonary infection, animals were terminally euthanized using 25% Urethane via intra-peritoneal injection. Lungs, were removed and homogenized in 2 ml PBS. Samples were serially diluted 1:10 in PBS and plated for CFU count. Lung homogenates were then centrifuged at 14000 rpm for 30 min at 4° C. and the supernatants were stored at −80° C. for future analysis. For bronchoalveolar lavage fluid collection and analysis (total and differential cell count), a 22-gauge catheter was inserted into the trachea and BAL was recovered by instillation of 0.5 ml of sterile PBS three times and total cells counts were performed by adding Turks stain in a 1:1 ratio. Total cells were then enumerated on an improved Naubauer haemocytometer. BAL fluid was then centrifuged, and supernatants were stored at −20° C. Cytospin slides were prepared and 100 μl of BAL was added into a cytospin funnel and centrifuged at 1000 rpm for 1 minute on a medium acceleration. The slides were then stained using Diff-Quick (Dade, Biomap, Italy).
More suitably Murine EMRSA-15 lung infection model was carried out using the method described previously,^58 an overnight culture of EMRSA-15 was prepared in tryptic soy broth (TSB). EMRSA-15 was cultured in TSB overnight at 37° C., adjusted to a starting OD600 of 0.025, and grown for additional 4 h for agar beads preparation. EMRSA-15 was embedded into agar beads by mixing the overnight culture with molten tryptic soy agar, which was then spun into warmed mineral oil. The preparation was cooled and centrifuged at 2,700 g, the remaining oil was eliminated, and the beads were washed in sterile PBS. The colony forming unit (CFU) content of the beads slurry was subsequently quantified on TSA plates and the beads slurry then diluted to either 2×10^7 CFU/ml in sterile PBS to deliver a final dose of either 1×10^6 CFU/mouse. Animal work was performed in accordance with the Animals (Scientific Procedures) Act of 1986 (United Kingdom). On day 0, male C57B16J mice (8-10 weeks, Charles River) were anesthetized under Isoflurane and 50 μl inoculum of EMRSA-15 embedded in agar beads (10^6 CFU/mouse) was instilled directly into the respiratory tract via oropharyngeal dosing (o.a.) to reduce severity associated with surgery. Sham control mice were inoculated with sterile PBS agar beads.

[6] = test system: P. aeruginosa RP73; assay: Antibacterial activity assay (broth microdilution MIC); assay type: cell-based, Pseudomonas aeruginosa; conditions: in µg/mL; for MIC on initial panels: medium and unit not given; for MIC: untitled table, medium/unit not given
Description: Antibacterial activity assay.
Synergy experiments were performed following a checkerboard protocol.

In the case of `CC(C)C[C@@H](NC(=O)[C@@H](Cc1ccc(O)cc1)NC(=O)[C@@H](Cc1c[nH]cn1)NC(=O)[C@H](NC(=O)[C@@H](CC(C)C)NC(=O)[C@@H](C)NC(=O)[C@@H](C)NC(=O)[C@@H](CCCNC(=N)N)NC(=O)CNC(=O)[C@H](NC(=O)[C@@H](Cc1c[nH]cn1)NC(=O)[C@@H](CCCNC(=N)N)NC(=O)CNC(=O)[C@H](NC(=O)[C@@H](Cc1c[nH]cn1)NC(=O)[C@@H](C)NC(=O)[C@@H](C)NC(=O)[C@@H](CCCNC(=N)N)NC(=O)[C@@H](CCCNC(=N)N)NC(=O)[C@@H](Cc1ccccc1)NC(=O)[C@@H](Cc1ccccc1)NC(=O)[C@@H](CO)NC(=O)CNC(=O)[C@@H](Cc1c[nH]c2ccccc12)NC(=O)CN)C(C)C)C(C)C)[C@H](C)O)C(N)=O` [D-pleurocidin-KR] (HELM PEPTIDE1{G.[dW].G.[dS].[dF].[dF].[dR].[dR].[dA].[dA].[dH].[dV].G.[dR].[dH].[dV].G.[dR].[dA].[dA].[dL].[dT].[dH].[dY].[dL].[am]}$$$$V2.0; N-terminus assumed), the “MIC, Peptide concentration” value [1] is reported as 8 (NG) μg/ml, the “MIC on initial panels” value [1] is reported as 8 and the “Toxicity A549 (EC50), Peptide concentration” value [2] is reported as “(56.5 ± 4.5) μg/ml”. For the same molecule, the “Toxicity Calu-3 (EC50), Peptide concentration” value [3] was “(39.1 ± 1.8) μg/ml”, the “therapeutic index over red blood cell haemolysis” value [4] was “at least 100 fold” and the “Toxicity HC50, Peptide concentration” value [4] was roughly 400 µg/mL. For the same molecule, the “reduction in lung CFU” value ([5]; cumulative dose 1.5 mg/kg/48h i.v.) was 0.9 log10, the “reduction in lung CFU” value ([5]; cumulative dose 15 mg/kg/48h i.v. (three doses at 4, 24, 30 h post infection), 15 mg/kg) was 1.14 log10 and 1.1 log10 and the “reduction in lung CFU” value ([5]; cumulative dose 15 mg/kg/48h i.v. (three doses at 4, 24, 30 h post infection), listed as AMP2b, 15 mg/kg) was 1.14 log10. For the same molecule, the “weight loss over the 48-hour infection period” value ([5]; cumulative dose of 15 or 1.5 mg/kg/48h i.v.) was “mitigates this weight loss”, the “IL-6 and neutrophil recruitment in BAL” value ([5]; following therapy, i.v.) was “reduced” and the “macrophage numbers, TNFα and MCP-1 levels in BAL” value ([5]; following therapy, i.v.) was “No effects”. The “tolerability in murine lung infection model” value ([5]; i.v., cumulative dose of 15 or 1.5 mg/kg) was “well tolerated”, the “weight loss over the 48-hour infection period” value ([5]; lowest cumulative dose of 0.15 mg/kg i.v.) was “no observable effect” and the “IL-6 and neutrophil recruitment in BAL” value ([5]; lowest dose of D-pleurocidin-KR (0.15 mg/kg cumulative)) was “significant reduction”. For the same molecule, the “effective cumulative dose over 48 hrs” value ([5]; murine EMRSA-15 lung infection) was 1.5 mg/kg, the “mouse KC levels in BAL” value ([5]; vancomycin 600 mg/kg or the two higher D-pleurocidin-KR doses (15, 1.5 mg/kg cumulative)) was “KC levels to fall to that of the uninfected group” and the “MIC on initial panels” value [6] was 16. For the same molecule, the MIC [6] was 33.

In the case of `CC(C)C[C@@H](NC(=O)[C@@H](Cc1ccc(O)cc1)NC(=O)[C@@H](Cc1c[nH]cn1)NC(=O)[C@H](NC(=O)[C@@H](CC(C)C)NC(=O)[C@@H](C)NC(=O)[C@@H](C)NC(=O)[C@@H](CCCCN)NC(=O)CNC(=O)[C@H](NC(=O)[C@@H](Cc1c[nH]cn1)NC(=O)[C@@H](CCCCN)NC(=O)CNC(=O)[C@H](NC(=O)[C@@H](Cc1c[nH]cn1)NC(=O)[C@@H](C)NC(=O)[C@@H](C)NC(=O)[C@@H](CCCCN)NC(=O)[C@@H](CCCCN)NC(=O)[C@@H](Cc1ccccc1)NC(=O)[C@@H](Cc1ccccc1)NC(=O)[C@@H](CO)NC(=O)CNC(=O)[C@@H](Cc1c[nH]c2ccccc12)NC(=O)CN)C(C)C)C(C)C)[C@H](C)O)C(N)=O` [D-pleurocidin] (HELM PEPTIDE1{G.[dW].G.[dS].[dF].[dF].[dK].[dK].[dA].[dA].[dH].[dV].G.[dK].[dH].[dV].G.[dK].[dA].[dA].[dL].[dT].[dH].[dY].[dL].[am]}$$$$V2.0; N-terminus assumed), the “MIC, Peptide concentration” value [1] is reported as 32 (NG) μg/ml, the “MIC on initial panels” value [1] is reported as 32 and the “Toxicity A549 (EC50), Peptide concentration” value [2] is reported as “(79.3 ± 7.2) μg/ml”. The “Toxicity Calu-3 (EC50), Peptide concentration” value [3] was “(41.9 ± 1.8) μg/ml”, the “Toxicity HC50, Peptide concentration” value [4] was greater than 400 µg/mL and the “MIC on initial panels” value [6] was 8-16. The MIC [6] was 16-32.

`CC(C)C[C@H](NC(=O)[C@H](Cc1ccc(O)cc1)NC(=O)[C@H](Cc1c[nH]cn1)NC(=O)[C@@H](NC(=O)[C@H](CC(C)C)NC(=O)[C@H](C)NC(=O)[C@H](C)NC(=O)[C@H](CCCCN)NC(=O)CNC(=O)[C@@H](NC(=O)[C@H](Cc1c[nH]cn1)NC(=O)[C@H](CCCCN)NC(=O)CNC(=O)[C@@H](NC(=O)[C@H](Cc1c[nH]cn1)NC(=O)[C@H](C)NC(=O)[C@H](C)NC(=O)[C@H](CCCCN)NC(=O)[C@H](CCCCN)NC(=O)[C@H](Cc1ccccc1)NC(=O)[C@H](Cc1ccccc1)NC(=O)[C@H](CO)NC(=O)CNC(=O)[C@H](Cc1c[nH]c2ccccc12)NC(=O)CN)C(C)C)C(C)C)[C@@H](C)O)C(N)=O` [Pleurocidin, reference compound] (H-GWGSFFKKAAHVGKHVGKAALTHYL-NH2; N-terminus assumed) was tested, and the “MIC, Peptide concentration” value [1] was 64 (NG) μg/ml, the “MIC on initial panels” value [1] was 64 and the “Toxicity HC50, Peptide concentration” value [4] was roughly 400 µg/mL.

For `CC(C)C[C@H](NC(=O)[C@H](Cc1ccc(O)cc1)NC(=O)[C@H](Cc1c[nH]cn1)NC(=O)[C@@H](NC(=O)[C@H](CC(C)C)NC(=O)[C@H](C)NC(=O)[C@H](C)NC(=O)[C@H](CCCNC(=N)N)NC(=O)CNC(=O)[C@@H](NC(=O)[C@H](Cc1c[nH]cn1)NC(=O)[C@H](CCCNC(=N)N)NC(=O)CNC(=O)[C@@H](NC(=O)[C@H](Cc1c[nH]cn1)NC(=O)[C@H](C)NC(=O)[C@H](C)NC(=O)[C@H](CCCNC(=N)N)NC(=O)[C@H](CCCNC(=N)N)NC(=O)[C@H](Cc1ccccc1)NC(=O)[C@H](Cc1ccccc1)NC(=O)[C@H](CO)NC(=O)CNC(=O)[C@H](Cc1c[nH]c2ccccc12)NC(=O)CN)C(C)C)C(C)C)[C@@H](C)O)C(N)=O` [Pleurocidin-KR] (H-GWGSFFRRAAHVGRHVGRAALTHYL-NH2; N-terminus assumed), the “MIC, Peptide concentration” value [1] was 16 (NG) μg/ml, the “MIC on initial panels” value [1] was 16 and the “Toxicity HC50, Peptide concentration” value [4] was greater than 400 µg/mL.

With `CC(C)C[C@H](NC(=O)[C@H](Cc1ccc(O)cc1)NC(=O)[C@H](Cc1c[nH]cn1)NC(=O)[C@@H](NC(=O)[C@H](CC(C)C)NC(=O)[C@H](C)NC(=O)[C@H](C)NC(=O)[C@H](CCCCN)NC(=O)CNC(=O)[C@H](C)NC(=O)[C@H](Cc1c[nH]cn1)NC(=O)[C@H](CCCCN)NC(=O)CNC(=O)[C@H](C)NC(=O)[C@H](Cc1c[nH]cn1)NC(=O)[C@H](C)NC(=O)[C@H](C)NC(=O)[C@H](CCCCN)NC(=O)[C@H](CCCCN)NC(=O)[C@H](Cc1ccccc1)NC(=O)[C@H](Cc1ccccc1)NC(=O)[C@H](CO)NC(=O)CNC(=O)[C@H](Cc1c[nH]c2ccccc12)NC(=O)CN)[C@@H](C)O)C(N)=O` [Pleurocidin-VA] (H-GWGSFFKKAAHAGKHAGKAALTHYL-NH2; N-terminus assumed) the “MIC, Peptide concentration” value [1] was 64-128 (NG) μg/ml, the “MIC on initial panels” value [1] was 64-128 and the “Toxicity HC50, Peptide concentration” value [4] was >>400 μg/ml.
